Data taken from paper PMC3230704 (Molecular pharmaceutics, 2011).
Where no end group is shown, it is not given here.

Key:
[1] = biological target: MT1-MMP (MMP-14) (Homo sapiens, UniProt P50281); test: Fluorescence activation of MT-P by activated MT1-MMP; type: biochemical; conditions: MT1-MMP 0, 4, 20 and 40 nM, 60 min, spectrofluorimetry
[2] = tested on: MDA-MB-435 tumor; test: In vivo NIR fluorescence imaging of MT1-MMP-positive tumor-bearing mice
[3] = tested on: MDA-MB-435 tumor-bearing mice; test: Ex vivo biodistribution imaging of excised tumors and organs; type: in vivo; conditions: 24 hrs post-injection, without inhibitor
[4] = tested on: MT1-MMP; conditions: cited from earlier work

Row | activation of NIR fluorescent signals over the probe without MT1-MMP [1] | Substance | onset of activation in tumor ([2]; 5 nmol i.v., MDA-MB-435 tumor-bearing mice) | fluorescent signal in the tumor at 48 hrs post-injection ([2]; 48 hrs post-injection) | biodistribution of activated fluorescence [3] | specificity constant (kcat/Km) [4]
1 | up to 10 fold | GRIGFLRTAKGG [MT-P] | less than 1 hr | not detectable | activated predominantly in the tumor and liver over other organs | –
2 | – | RIGFLR | – | – | – | 777,200 M^−1s^−1
